Molecular target: Human Factor D (Homo sapiens (Human), UniProt P00746)
Experiment: Human Factor D Assay
Format: biochemical
Details: Factor D inhibition, assay of Example 10; read-out: IC5 (Stars)
Summary of the method: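 Thioester substrate Z-L-Lys-SBz (100 μM) with Ellman's reagent DTNB (100 μM) reports activity of 80 nM human serum-derived enzyme, kinetically at 405 nm over 30 min. Compound preincubated 5 min, room temperature, pH 7.5 Tris/1 M NaCl; IC50 by nonlinear fit of rates.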

Sequence of Human Factor D (P00746 26-253): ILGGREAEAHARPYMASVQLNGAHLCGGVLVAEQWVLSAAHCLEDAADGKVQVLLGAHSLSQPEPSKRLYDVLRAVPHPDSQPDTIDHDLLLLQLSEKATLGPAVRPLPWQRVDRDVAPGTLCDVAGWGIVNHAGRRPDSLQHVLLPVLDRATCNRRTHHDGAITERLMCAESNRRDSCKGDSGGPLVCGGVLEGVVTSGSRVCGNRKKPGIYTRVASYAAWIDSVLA

Row | SMILES | IC50
1 | CC(=O)c1nn(CC(=O)N2[C@H](C(=O)NCCC(C)(C)C)C[C@@]3(C)C[C@@H]23)c2ccc(-c3cnc(C)nc3)cc12 [Compound 552, (1R,3S,5R)-2-(2-(3-acetyl-5-(2-methylpyrimidin-5-yl)-1H-indazol-1-yl)acetyl)-N-(3,3-dimethylbutyl)-5-methyl-2-azabicyclo[3.1.0]hexane-3-carboxamide] | < 1000 nM
2 | CC(=O)c1nn(CC(=O)N2[C@H](C(=O)N[C@@H](C)c3ccccc3)C[C@@]3(C)C[C@@H]23)c2ccc(-c3cnc(C)nc3)cc12 [Compound 553, (1R,3S,5R)-2-(2-(3-acetyl-5-(2-methylpyrimidin-5-yl)-1H-indazol-1-yl)acetyl)-5-methyl-N-((S)-1-phenylethyl)-2-azabicyclo[3.1.0]hexane-3-carboxamide] | < 1000 nM
3 | CC(=O)c1nn(CC(=O)N2[C@H](C(=O)N[C@@H](C)COC(F)(F)F)C[C@@]3(C)C[C@@H]23)c2ccc(-c3cnc(C)nc3)cc12 [Compound 554, (1R,3S,5R)-2-(2-(3-acetyl-5-(2-methylpyrimidin-5-yl)-1H-indazol-1-yl)acetyl)-5-methyl-N-((S)-1-(trifluoromethoxy)propan-2-yl)-2-azabicyclo[3.1.0]hexane-3-carboxamide] | < 1000 nM
4 | CC(=O)c1nn(CC(=O)N2[C@H](C(=O)Nc3cc(Cc4ccccc4)cc(Br)n3)C[C@@]3(C)C[C@@H]23)c2ccc(-c3cnc(C)nc3)cc12 [Compound 555, (1R,5R)-2-(2-(3-acetyl-5-(2-methylpyrimidin-5-yl)-1H-indazol-1-yl)acetyl)-N-(4-benzyl-6-bromopyridin-2-yl)-5-methyl-2-azabicyclo[3.1.0]hexane-3-carboxamide] | < 1000 nM
5 | CC(=O)c1nn(CC(=O)N2[C@H](C(=O)Nc3cc(-c4ccccc4O)cc(Br)n3)C[C@@]3(C)C[C@@H]23)c2ccc(-c3cnc(C)nc3)cc12 [Compound 556, (1R,3S,5R)-2-(2-(3-acetyl-5-(2-methylpyrimidin-5-yl)-1H-indazol-1-yl)acetyl)-N-(6-bromo-4-(2-hydroxyphenyl)pyridin-2-yl)-5-methyl-2-azabicyclo[3.1.0]hexane-3-carboxamide] | < 1000 nM
6 | CC(=O)c1nn(CC(=O)N2[C@H](C(=O)Nc3cc(COCc4ccccc4)cc(Br)n3)C[C@@]3(C)C[C@@H]23)c2ccc(-c3cnc(C)nc3)cc12 [Compound 557, (1R,3S,5R)-2-(2-(3-acetyl-5-(2-methylpyrimidin-5-yl)-1H-indazol-1-yl)acetyl)-N-(4-6-bromopyridin-2-yl)-5-methyl-2-azabicyclo[3.1.0]hexane-3-carboxamide] | < 1000 nM
7 | CC(=O)c1nn(CC(=O)N2[C@H](C(=O)N[C@H](C)c3ccccc3)C[C@@]3(C)C[C@@H]23)c2ccc(-c3cnc(C)nc3)cc12 [Compound 558, (1R,3S,5R)-2-(2-(3-acetyl-5-(2-methylpyrimidin-5-yl)-1H-indazol-1-yl)acetyl)-5-methyl-N-((R)-1-phenylethyl)-2-azabicyclo[3.1.0]hexane-3-carboxamide] | < 1000 nM
8 | CC(=O)c1nn(CC(=O)N2[C@H](C(=O)NC/C(F)=C(/C)c3ccccc3)C[C@@]3(C)C[C@@H]23)c2ccc(-c3cnc(C)nc3)cc12 [Compound 559, (1R,3S,5R)-2-(2-(3-acetyl-5-(2-methylpyrimidin-5-yl)-1H-indazol-1-yl)acetyl)-N-((E)-2-fluoro-3-phenylbut-2-en-1-yl)-5-methyl-2-azabicyclo[3.1.0]hexane-3-carboxamide] | < 1000 nM
9 | CC(=O)c1cn(CC(=O)N2[C@H](C(=O)NC/C(F)=C(/C)c3ccccc3)C[C@@]3(C)C[C@@H]23)c2cnc(-c3cnc(C)nc3)cc12 [Compound 560] | < 1000 nM
10 | CC(=O)c1nn(CC(=O)N2[C@H](C(=O)NC/C(F)=C(/C)c3ccccc3)C[C@@]3(C)C[C@@H]23)c2c(C)cc(-c3cnc(C)nc3)cc12 [Compound 561, (1R,3S,5R)-2-(2-(3-acetyl-7-methyl-5-(2 methylpyrimidin-5-yl)-1H-indazol-1-yl)acetyl)-N-((E)-2-fluoro-3-phenylbut-2-en-1-yl)-5-methyl-2-azabicyclo[3.1.0]hexane-3-carboxamide] | < 1000 nM
11 | Cc1ncc(-c2ccc3c(c2)c(C(=O)NC(C)C)nn3CC(=O)N2[C@H](C(=O)Nc3nc(Br)ccc3C)C[C@@]3(C)C[C@@H]23)cn1 [Compound 562, 1-(2-((1R,3S,5R)-3-((6-bromo-3-methylpyridin-2-yl)carbamoyl)-5-methyl-2-azabicyclo[3.1.0]hexan-2-yl)-2-oxoethyl)-N-isopropyl-5-(2-methylpyrimidin-5-yl)-1H-indazole-3-carboxamide] | 1000 to 10000 nM
12 | CC(=O)c1nn(CC(=O)N2[C@H](C(=O)Nc3cc(CC(F)(F)F)cc(Br)n3)C[C@@]3(C)C[C@@H]23)c2ccc(-c3cnc(C)nc3)cc12 [Compound 572, (1R,3S,5R)-2-(2-(3-acetyl-5-(2-methylpyrimidin-5-yl)-1H-indazol-1-yl)acetyl)-N-(6-bromo-4-(2,2,2-trifluoroethyl)pyridin-2-yl)-5-methyl-2-azabicyclo[3.1.0]hexane-3-carboxamide] | < 1000 nM
13 | CC(=O)c1nn(CC(=O)N2[C@H](C(=O)NCCOC(F)(F)F)C[C@@]3(C)C[C@@H]23)c2ccc(-c3cnc(C)nc3)cc12 [Compound 579, (1R,3S,5R)-2-(2-(3-acetyl-5-(2-methylpyrimidin-5-yl)-1H-indazol-1-yl)acetyl)-5-methyl-N-(2-(trifluoromethoxy)ethyl)-2-azabicyclo[3.1.0] hexane-3-carboxamide] | < 1000 nM
14 | CC(=O)c1nn(CC(=O)N2[C@H](C(=O)N[C@@H](C)CC(C)(C)C)C[C@@]3(C)C[C@@H]23)c2ccc(-c3cnc(C)nc3)cc12 [Compound 588, (1R,3S,5R)-2-(2-(3-acetyl-5-(2-methylpyrimidin-5-yl)-1H-indazol-1-yl)acetyl)-N-((S)-4,4-dimethylpentan-2-yl)-5-methyl-2-azabicyclo[3.1.0]hexane-3-carboxamide] | 1000 to 10000 nM
15 | CC(=O)c1nn(CC(=O)N2[C@H](C(=O)N[C@H](C)CC(C)(C)C)C[C@@]3(C)C[C@@H]23)c2ccc(-c3cnc(C)nc3)cc12 [Compound 589, (1R,3S,5R)-2-(2-(3-acetyl-5-(2-methylpyrimidin-5-yl)-1H-indazol-1-yl)acetyl)-N-((R)-4,4-dimethylpentan-2-yl)-5-methyl-2-azabicyclo[3.1.0]hexane-3-carboxamide] | < 1000 nM
16 | CC(=O)c1nn(CC(=O)N2[C@H](C(=O)N[C@@H](C)c3cccc(Cl)c3F)C[C@@]3(C)C[C@@H]23)c2ccc(-c3cnc(C)nc3)cc12 [Compound 590, (1R,3S,5R)-2-(2-(3-acetyl-5-(2-methylpyrimidin-5-yl)-1H-indazol-1-yl)acetyl)-N-((S)-1-(3-chloro-2-fluorophenyl)ethyl)-5-methyl-2-azabicyclo[3.1.0]hexane-3-carboxamide] | < 1000 nM
17 | CC(=O)c1nn(CC(=O)N2[C@H](C(=O)NCc3ccncn3)C[C@@]3(C)C[C@@H]23)c2c(C)cc(-c3cnc(C)nc3)cc12 [Compound 592, (1R,3S,5R)-2-(2-(3-acetyl-7-methyl-5-(2-methylpyrimidin-5-yl)-1H-indazol-1-yl)acetyl)-5-methyl-N-(pyrimidin-4-ylmethyl)-2-azabicyclo[3.1.0]hexane-3-carboxamide] | 1000 to 10000 nM
18 | CC(=O)c1nn(CC(=O)N2[C@H](C(=O)N[C@@H](C)c3ccc(C)cc3)C[C@@]3(C)C[C@@H]23)c2ccc(-c3cnc(C)nc3)cc12 [Compound 598, (1R,3S,5R)-2-(2-(3-acetyl-5-(2-methylpyrimidin-5-yl)-1H-indazol-1-yl)acetyl)-5-methyl-N-((S)-1-(p-tolyl)ethyl)-2-azabicyclo[3.1.0]hexane-3-carboxamide] | 1000 to 10000 nM
19 | CC(=O)c1nn(CC(=O)N2[C@H](C(=O)N[C@@H](C)c3cccc(Cl)c3)C[C@@]3(C)C[C@@H]23)c2ccc(-c3cnc(C)nc3)cc12 [Compound 599, (1R,3S,5R)-2-(2-(3-acetyl-5-(2-methylpyrimidin-5-yl)-1H-indazol-1-yl)acetyl)-N-((S)-1-(3-chlorophenyl)ethyl)-5-methyl-2-azabicyclo[3.1.0]hexane-3-carboxamide] | < 1000 nM
20 | CC(=O)c1nn(CC(=O)N2[C@H](C(=O)N[C@@H](C)c3ccccc3F)C[C@@]3(C)C[C@@H]23)c2ccc(-c3cnc(C)nc3)cc12 [Compound 600, (1R,3S,5R)-2-(2-(3-acetyl-5-(2-methylpyrimidin-5-yl)-1H-indazol-1-yl)acetyl)-N-((S)-1-(2-fluorophenyl)ethyl)-5-methyl-2-azabicyclo[3.1.0]hexane-3-carboxamide] | < 1000 nM
21 | CC(=O)c1nn(CC(=O)N2[C@H](C(=O)N[C@H](C)c3cccc(Cl)c3F)C[C@@]3(C)C[C@@H]23)c2ccc(-c3cnc(C)nc3)cc12 [Compound 601, (1R,3S,5R)-2-(2-(3-acetyl-5-(2-methylpyrimidin-5-yl)-1H-indazol-1-yl)acetyl)-N-((R)-1-(3-chloro-2-fluorophenyl)ethyl)-5-methyl-2-azabicyclo[3.1.0]hexane-3-carboxamide] | < 1000 nM
22 | CC(=O)c1nn(CC(=O)N2[C@H](C(=O)NCCC3CCOCC3)C[C@@]3(C)C[C@@H]23)c2c(C)cc(-c3cnc(C)nc3)cc12 [Compound 606, (1R,3S,5R)-2-(2-(3-acetyl-7-methyl-5-(2-methylpyrimidin-5-yl)-1H-indazol-1-yl)acetyl)-5-methyl-N-(2-(tetrahydro-2H-pyran-4-yl)ethyl)-2-azabicyclo[3.1.0]hexane-3-carboxamide] | 1000 to 10000 nM

Same assay, conditions: Table 8; Factor D 80 nM, substrate Z-L-Lys-SBz; read-out: IC50

Row | SMILES | IC50
23 | CCC(C)NC(=O)c1nn(CC(=O)N2[C@H](C(=O)Nc3nc(Br)ccc3C)C[C@@]3(C)C[C@@H]23)c2ccc(-c3cnc(C)nc3)cc12 (stereo partly drawn) [Compound 569, 1-(2-((1R,3S,5R)-3-((6-bromo-3-methylpyridin-2-yl)carbamoyl)-5-methyl-2-azabicyclo[3.1.0]hexan-2-yl)-2-oxoethyl)-N-(sec-butyl)-5-(2-methylpyrimidin-5-yl)-1H-indazole-3-carboxamide] | 1000 to 10000 nM
